Assay results published in patent US20060069021A1, “Compositions and methods for intranasal administration of inactive analogs of PTH or inactivated preparations of PTH or PTH analogs” (Nastech Pharmaceutical Company Inc., priority 2004, published 2006).
Entries after “also recorded” stand apart in the source; their conditions may differ. Where two headings read alike, the source gives them in different places. Ends that are not written are not given here.

Experiments:
ciliary motility = conditions: cited from earlier work
[1] = rats, intraduodenal, with 1% (w/v) saline dispersion of polycarbophil; cited from earlier work
aminopeptidases = conditions: cited from earlier work
[2] = aqueous solution at physiologic pH; cited from earlier work
ovariectomized rat model = conditions: cited from earlier work
[3] = system: Type II collagen production by human chondrocytes; experiment: Cartilage growth model: human chondrocytes in alginate beads, type II collagen ELISA; type: cell-based
Experimental: A. Approximately 3 million human chondrocyte cells (Cell Applications, Inc., San Diego, Calif.) encapsulated in alginate beads were received in 25 mL total volume of re-differentiated medium. Human chondrocytes in alginate beads produce their phenotypic markers such as aggrecan and type II collagen unlike in monolayer culture where chondrocytes lose their phenotypic characteristics and de-differentiate to fibroblast-like cells. Alginate based cell system was pursued to assess type II collagen expression as result of PTH dosing and therefore indication of any cartilage growth.
B. The cell-containing alginate bead suspension was transferred from cell culture flask to 50 mL conical tubes. A volume of 500 μL (˜62,500 cells per well) suspension was dispensed per well in 24-well plates. Samples were added to each well and final volume was brought to one milliliter with appropriate growth media. Controls included cells treated with re-differentiated media as positive control (Cell Applications, Inc., San Diego, Calif.), cells treated with chondrocyte growth media (Cell Applications, Inc., San Diego, Calif.) and basal media (Cell Applications, Inc., San Diego, Calif.) as negative controls.
C. Plates were swirled gently to allow homogenous mixture of each sample. Plates were placed in 37° C., 5% CO2 incubator. Human chondrocytes were grown for up to 12 days on longer. Appropriate growth media were replaced every second or third day. Alginate beads were prepared for type II collagen extraction on the last day of the experiment and extracted collagen was quantified using Native Type II Collagen Detection Kit (Chondrex Inc., Redmond Wash.). Pictures of cells immediately following the samples application and at several time points during the course of experiment were taken using the Olympus CK40 microscope and Nikon Cool Pix 4500 digital camera.
D. A capture ELISA kit (Native Type II Collagen Detection Kit, Chondrex Inc.) was used to measure native type II collagen. For measuring glycosaminoglycans, the kit used was Blyscan Sulfated Glycosaminoglycan Assay kit (Accurate Chemical & Scientific Corp.).
Next, the alginate-based cell system (cartilage growth model; refer to Example 2) was used to determine whether PTH dosing could stimulate chondrocytes to produce cartilage. […] Type II collagen is a major component of the extracelluar matrix of nasal cartilage and therefore was used as a molecular marker for cartilage growth in this assay.
The cell-containing alginate beads were incubated in the presence of various test solutions for 12 days at 37° C., 5% CO2. After the incubation, the alginate beads were processed using an extraction method in order to quantify the production of type II collagen.

[4] = anesthetized rats, cited from earlier work
[5] = system: human chondrocyte cell monolayer; experiment: Cell proliferation model: human chondrocyte monolayer, MTT assay; type: cell-based; conditions: MTT at t=0 and after 4 days at 37° C./5% CO2
Experimental: A. Chondrocyte monolayers (Cell Applications, Inc., San Diego, Calif.) derived from normal human cartilage were adhered on to a 24-well plate and shipped following the first doubling. Approximately 16000 cells per well were expected at the time the cells were received. Two plates were treated identically with PTH and appropriate control samples. Controls included cells treated with chondrocyte growth media for positive control (Cell Applications, Inc., San Diego, Calif.) and cells treated with basal media for negative control (Cell Applications, Inc., San Diego, Calif.).
B. After the cells are treated, one of the two plates was analyzed for cell viability (t=0 sample). The second plate was placed at 37° C., 5% CO2 incubator for 4 days, after which the plates were analyzed using the MTT assay.
C. MTT is a cell-permeable tetrazolium salt which is reduced by mitochondrial dehydrogenase activity to an insoluble colored formazan by viable cells with intact mitochondrial function or by nonmitochondrial NAD(P)H dehydrogenase activity from cells capable of generating a respiratory burst. […] We have employed a MTT reagent kit prepared by MatTek Corp for their units as in indicator of cell proliferation.
A human chondrocyte cell monolayer model was employed to examine cell proliferation (refer to Example 2). […]

2-alkyl-4-hydroxyquinolines [pyo compound]
concentration producing ciliostasis / inhibiting ciliary motility (ciliary motility): 50 µg/mL

9-desglycinamide, 8-arginine vasopressin
increase of bioavailability compared to aqueous solution without polymer [1]: 3-5 fold

CC(C)CC(N)B(O)O (stereo not drawn) [boro-leucine]
effectiveness in enzyme inhibition relative to bestatin (aminopeptidases): more than 100 times
effectiveness in enzyme inhibition relative to puromycin (aminopeptidases): more than 1,000 times

CCN(CC)/[N+]([O-])=N/O.CCNCC [diethylamine/NO]
rate (time) of NO release [2]: < 3 min

NCCN(CCN)/[N+]([O-])=N/O [diethylenetriamine/NO (DETANO), diethylenetriamine/NO]
rate (time) of NO release [2]: approximately 20 hours

Ser Val Ser Glu Ile Gln Leu Met His Asn Leu Gly Lys His Leu Asn Ser Met Glu Arg Val Glu Trp Leu Arg Lys Lys Leu Gln Asp Val-NH2 (SVSEIQLMHNLGKHLNSMERVEWLRKKLQDV-NH2) [hPTH-(1-31)-NH2]
restoration of bone loss (ovariectomized rat model): fully active

calcitonin
type II collagen production ([3]; 20 μg calcitonin): no effect
type II collagen production ([3]; 200 μg calcitonin): no effect

human growth hormone: human growth hormone given nasally with or without N-acetyl-L-cysteine
nasal bioavailability of human growth hormone ([4]; with N-acetyl-L-cysteine (ACS)): 12.2%
nasal bioavailability of human growth hormone ([4]; without N-acetyl-L-cysteine): 7.5%

insulin-like growth factor I [IGF-I]
type II collagen production ([3]; 5 μg IGF-I (positive control)): greater than 1.2 pg per culture

B1: PTH: Parathyroid hormone peptide tested in Example 4; which form (1-84 or 1-34) is not stated (peptide, UniProt P01270 32-115, looked up)
Parathyroid hormone: SVSEIQLMHNLGKHLNSMERVEWLRKKLQDVHNFVALGAPLAPRDAGSQRPRKKEDNVLVESHEKSLGEADKADVNVLTKAKSQ
modifications: Parathyroid hormone
chondrocyte proliferation (MTT assay) ([5]; PTH in simple formulation (citrate buffer)): did not stimulate chondrocyte proliferation
chondrocyte proliferation (MTT assay) ([5]; PTH with permeation enhancers of Table 2): did not stimulate chondrocyte proliferation
type II collagen production ([3]; 20 μg PTH in citrate buffer, 12 days at 37° C., 5% CO2): did not induce a substantial production of type II collagen
type II collagen production ([3]; 20 μg PTH with permeation enhancers, 12 days): did not induce a substantial production of type II collagen
type II collagen production ([3]; 200 μg PTH in simple formulation, 12 days): significant increase in type II collagen; also recorded: modest amounts of type II collagen production
type II collagen production ([3]; high concentration of PTH (200 μg) with permeation enhancers, 12 days): essentially no production of type II collagen; also recorded: did not induce any cartilage growth
